One assay has as its target T1, Aurora kinase A (Homo sapiens, UniProt O14965).
T1 sequence (O14965 whole entry): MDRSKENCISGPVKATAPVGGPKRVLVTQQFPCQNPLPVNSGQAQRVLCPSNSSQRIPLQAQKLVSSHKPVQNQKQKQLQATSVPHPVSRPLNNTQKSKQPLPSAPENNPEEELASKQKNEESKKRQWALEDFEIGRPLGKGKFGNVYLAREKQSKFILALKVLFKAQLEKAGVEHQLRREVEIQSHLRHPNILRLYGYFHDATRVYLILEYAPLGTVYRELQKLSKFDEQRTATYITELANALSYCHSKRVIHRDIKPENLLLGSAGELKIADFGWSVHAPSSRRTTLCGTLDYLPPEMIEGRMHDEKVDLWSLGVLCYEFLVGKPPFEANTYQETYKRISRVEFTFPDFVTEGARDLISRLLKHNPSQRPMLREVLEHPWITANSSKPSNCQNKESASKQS
In words: Inhibition of Aurora A (unknown origin) using FAM-labeled peptide as substrate preincubated for 10 mins followed by substrate addition measured after 60 mins.

The test system of a further assay is K562. In words: Antiproliferative activity against human K562 cells assessed as cell viability after 72 hrs by CCK8 assay. The conditions noted are these: Homo sapiens, K562, 72 h; read-out: IC50. It counts as functional, cell-based. On the technique in general: Tetrazolium dyes change colour on reduction, which living cells bring about.
The test system of a further assay is A-431. In words: Antiproliferative activity against human A431 cells assessed as cell viability after 72 hrs by CCK8 assay. It is filed as functional, cell-based. The conditions noted are these: Homo sapiens, A-431, 72 h; read-out: IC50.
The test system of another assay is MDA-MB-231. In words: Antiproliferative activity against human MDA-MB-231 cells assessed as cell viability after 72 hrs by CCK8 assay. It counts as functional, cell-based. The conditions noted are these: Homo sapiens, MDA-MB-231, 72 h; read-out: IC50.
The test system of a further assay is MCF7. In words: Antiproliferative activity against human MCF7 cells assessed as cell viability after 72 hrs by CCK8 assay. It is filed as functional, cell-based. The conditions noted are these: Homo sapiens, MCF7, 72 h; read-out: IC50.
A further assay relates to HCT-116. Description: Antiproliferative activity against human HCT116 cells assessed as cell viability after 72 hrs by CCK8 assay. It counts as functional, cell-based. The conditions noted are these: Homo sapiens, HCT-116, 72 h; read-out: IC50.
Assay [1] can be described thus: Cell cycle arrest in human CNE2 cells assessed as accumulation at G2/M phase at 1 uM after 24 hrs by propidium iodide staining-based flow cytometric analysis (reference value: 38.2%). The conditions noted are these: CNE-2. It is filed as functional. Background: In flow cytometry, cells or beads pass a laser one at a time.
A short description of assay [2]: Cell cycle arrest in human CNE2 cells assessed as accumulation at S phase at 1 uM after 24 hrs by propidium iodide staining-based flow cytometric analysis (reference value: 14.7%). It counts as functional. The conditions noted are these: CNE-2.
Another assay concerns PC-3. In words: Antiproliferative activity against human PC3 cells assessed as cell viability after 72 hrs by CCK8 assay. It is filed as functional, cell-based. The conditions noted are these: Homo sapiens, PC-3, 72 h; read-out: IC50.
A further assay concerns U-937. In words: Antiproliferative activity against human U937 cells assessed as cell viability after 72 hrs by CCK8 assay. It counts as functional, cell-based. The conditions noted are these: Homo sapiens, U-937, 72 h; read-out: IC50.
The nature of assay [3]: Cell cycle arrest in human CNE2 cells assessed as accumulation at polyploid period at 1 uM after 24 hrs by propidium iodide staining-based flow cytometric analysis (reference value: […]). It is filed as functional. The conditions noted are these: CNE-2.
The nature of assay [4]: Antiproliferative activity against human SKBR3 cells assessed as cell viability after 72 hrs by CCK8 assay. It counts as functional, cell-based, SK-BR-3. The conditions noted are these: Homo sapiens, SK-BR-3, 72 h; read-out: IC50.
Assay [5] is described as follows: Cell cycle arrest in human CNE2 cells assessed as accumulation at G1 phase at 1 uM after 24 hrs by propidium iodide staining-based flow cytometric analysis (reference value: 52.5%). It is filed as functional. The conditions noted are these: CNE-2.
Another assay deals with HL-60. In words: Antiproliferative activity against human HL60 cells assessed as cell viability after 72 hrs by CCK8 assay. It is filed as functional, cell-based. The conditions noted are these: Homo sapiens, HL-60, 72 h; read-out: IC50.
The nature of assay [6]: Antiproliferative activity against human PANC1 cells assessed as cell viability after 72 hrs by CCK8 assay. It counts as functional, cell-based. The conditions noted are these: PANC-1, 72 h.
The test system of another assay is DU-145. Description: Antiproliferative activity against human DU145 cells assessed as cell viability after 72 hrs by CCK8 assay. It is filed as functional, cell-based. The conditions noted are these: Homo sapiens, DU-145, 72 h; read-out: IC50.
The nature of assay [7]: Antiproliferative activity against human MOLT4 cells assessed as cell viability after 72 hrs by CCK8 assay. It counts as functional, cell-based, MOLT-4. The conditions noted are these: Homo sapiens, MOLT-4, 72 h; read-out: IC50.
The subject of a further assay is HeLa. Description: Antiproliferative activity against human HeLa cells assessed as cell viability after 72 hrs by CCK8 assay. It is filed as functional, cell-based. The conditions noted are these: Homo sapiens, HeLa, 72 h; read-out: IC50.
Another assay deals with NCI-N87. In words: Antiproliferative activity against human NCI-N87 cells assessed as cell viability after 72 hrs by CCK8 assay. It counts as functional, cell-based. The conditions noted are these: Homo sapiens, NCI-N87, 72 h; read-out: IC50.
The test system of another assay is A549. Description: Antiproliferative activity against human A549 cells assessed as cell viability after 72 hrs by CCK8 assay. The conditions noted are these: A549, 72 h. It is filed as functional, cell-based.

As for `COC(=O)c1ccc(Nc2nc(Nc3cc(C)[nH]n3)cc(N3CCN(C)CC3)n2)cc1`, the IC50 – broadly, the concentration at which inhibition is half-maximal – against Aurora kinase A is 46 nM; in the assay on K562 it was 359 nM; in the assay with A-431 it was 532 nM; in the assay with MDA-MB-231 it was 359 nM; in the assay on MCF7, 1780 nM; in the assay with HCT-116, 672 nM. For the same compound, the IC50 was determined as 1500 nM in the assay with PC-3; 119 nM with U-937; 8.65 µM in [4]; 203 nM in the assay with HL-60; 1080 nM in assay [6]; 798 nM in the assay on DU-145. The IC50 in [7] was 161 nM; in the assay on HeLa, 1270 nM; with NCI-N87, 17.8 µM; in the assay on A549 it was 1830 nM. The Activity turned out to be 84.3% in [1], 2.2% in [2], 11.2% in assay [3] and 1.7% in assay [5].

For `COc1ccccc1Nc1nc(Nc2cc(C)[nH]n2)cc(N2CCN(C)CC2)n1`, the midpoint of inhibition at Aurora kinase A, the IC50, lay at 200 nM. Further, the Activity in assay [1] turned out to be 49%; in assay [2], 8.2%; in assay [3] it was 3.7%; in [5] it was 38.7%.

With `COC(=O)c1ccc(Nc2nc(Nc3cc(C)[nH]n3)cc(N3CCOCC3)n2)cc1`, the IC50 against Aurora kinase A is 25 nM; in the assay with K562 it was 537 nM; in the assay with A-431 it was 832 nM; in the assay with MDA-MB-231, 571 nM; with MCF7, 938 nM; in the assay on HCT-116, 1040 nM. Besides, the IC50 with PC-3 amounted to 1090 nM; in the assay with U-937, 447 nM; in assay [4] it was 3.18 µM; in the assay with HL-60 it was 750 nM; in assay [6] it was 1590 nM; in the assay on DU-145, 611 nM. Moreover, the IC50 in assay [7] worked out at 302 nM; with HeLa, 1890 nM; with NCI-N87, 3.23 µM; with A549 it was 1590 nM. The Activity worked out at 35.7% in assay [1], 7.1% in [2], 4% in assay [3] and 52.9% in assay [5].

`COc1ccc(Nc2nc(Nc3cc(C)[nH]n3)cc(N3CCN(C)CC3)n2)cc1`: the IC50 turned out to be 34 nM against Aurora kinase A; 271 nM with K562; 385 nM with A-431; 243 nM in the assay on MDA-MB-231; 2750 nM in the assay on MCF7; 2240 nM in the assay on HCT-116. Further, the IC50 in the assay on PC-3 was determined as 2000 nM; in the assay on U-937, 92.3 nM; in [4] it was 14.7 µM; with HL-60 it was 335 nM; in assay [6], 1120 nM; with DU-145, 5050 nM. For the same compound, the IC50 in assay [7] came out at 116 nM; with HeLa it was 867 nM; with NCI-N87, 18.9 µM; with A549 it was 2650 nM. Moreover, the Activity came to 90.6% in assay [1], 2.2% in assay [2], 2.4% in assay [3] and 3.4% in [5].

On to `Cc1cc(Nc2cc(N3CCN(C)CC3)nc(Nc3cccc(Cl)c3)n2)n[nH]1`, for which the concentration for half-maximal inhibition (IC50) on Aurora kinase A was determined as 10 nM; in the assay on K562, 97.2 nM; with A-431 it was 87.5 nM; in the assay on MDA-MB-231, 56.4 nM; in the assay on MCF7, 436 nM; with HCT-116, 736 nM. Besides, the half-inhibitory concentration (IC50) stood at 573 nM in the assay with PC-3; 21.7 nM in the assay with U-937; 2.29 µM in [4]; 131 nM in the assay with HL-60; 351 nM in assay [6]; 3090 nM in the assay on DU-145. Moreover, the 50% inhibitory concentration (IC50) in assay [7] was 20.1 nM; in the assay with HeLa it was 425 nM; with NCI-N87, 1.77 µM; with A549 it was 723 nM. Further, the Activity in [1] was determined as 90.5%; in assay [2], 1.7%; in assay [3], 3.9%; in assay [5], 3.3%.

Regarding `Cc1cc(Nc2cc(N3CCN(C)CC3)nc(Nc3ccc(C(=O)OC(C)C)cc3)n2)n[nH]1`, the IC50 against Aurora kinase A was found to be 22 nM; with K562 it was 307 nM; in the assay on A-431, 440 nM; in the assay on MDA-MB-231, 162 nM; in the assay on MCF7, 1320 nM; with HCT-116, 1660 nM. For the same compound, the IC50 with PC-3 is 1360 nM; in the assay on U-937, 103 nM; in assay [4], 4.02 µM; with HL-60, 181 nM; in assay [6] it was 1320 nM; with DU-145, 499 nM. Moreover, the IC50 in [7] was 94.1 nM; in the assay on HeLa it was 985 nM; in the assay with NCI-N87, 6.32 µM; with A549 it was 1220 nM. Further, the Activity in assay [1] was found to be 89%; in assay [2] it was 1.7%; in assay [3], 7%; in assay [5], 1.9%.

With `COC(=O)c1ccc(Nc2nc(Nc3cc(C)[nH]n3)cc(N3CCN(C)CC3)n2)cc1Cl`, the half-maximal inhibitory concentration (IC50) at Aurora kinase A worked out at 7.7 nM; with K562, 137 nM; in the assay on A-431, 83.3 nM; with MDA-MB-231, 124 nM; in the assay with MCF7, 813 nM; with HCT-116, 1590 nM. The IC50 in the assay on PC-3 was 1380 nM; with U-937, 55 nM; in [4] it was 2.16 µM; in the assay on HL-60, 129 nM; in assay [6], 508 nM; in the assay with DU-145, 900 nM. In addition, the IC50 in [7] was determined as 42.9 nM; in the assay with HeLa it was 322 nM; in the assay on NCI-N87, 3.62 µM; with A549 it was 1590 nM.

On Aurora kinase A, `COC(=O)c1ccc(CNc2nc(Nc3cc(C)[nH]n3)cc(N3CCN(C)CC3)n2)cc1` registered an IC50 of 127 nM. In addition, the Activity in assay [1] was determined as 35.3%; in assay [2], 6.2%; in assay [3] it was 3%; in [5], 55.4%.

For the origin of these results see ChEMBL document CHEMBL3232730, “Design, synthesis and bioevaluation of N-trisubstituted pyrimidine derivatives as potent aurora A kinase inhibitors” (Eur J Med Chem, 2014).
